These are literature values, as cited in patent US20250345348A1, “AMPK ACTIVATOR (CBDA) AND SGLT2 INHIBITOR FOR METABOLIC HEALTH” (SOCIETE DES PRODUITS NESTLE S.A., priority 2022, published 2025).

Like-named read-outs stand apart in the source and are kept apart here.

For `O=C(CCc1ccc(O)cc1)c1c(O)cc(O)cc1O[C@@H]1O[C@H](CO)[C@@H](O)[C@H](O)[C@H]1O` [phlorizin, 1-(2,4-Dihydroxy-6-{[(2S,3R,4S,5S,6R)-3,4,5-trihydroxy-6-(hydroxymethyl)oxan-2-yl]oxy}phenyl)-3-(4-hydroxyphenyl)propan-1-one], the solubility entry is “soluble” (in ethanol and hot water); “poorly soluble” (in ether and cold water). In addition, the “stability in aqueous solutions” value (prolonged exposure to aqueous solutions) is “hydrolyzes to phloretin and glucose”.
